Measured values from patent US20080039442A1, “Compounds With Kv4 Ion Channel Activity” (Devgen NV, priority 2004, published 2008).

Biological target: T1, Kv1.5 potassium channel (Homo sapiens, UniProt P22460)
T1 construct: expressed in transfected cells
Test: Patch clamp, CHO cells stably expressing Kv1.5
Type: cell-based
Experimental: The cDNA coding for Kv1.5 (GenBank Acc. No. M55513) was cloned into the pcDNA6-vector (Invitrogen, Leek, Netherlands). A C-terminal epitope-tag was introduced via PCR. The plasmid was sequenced and subsequently introduced into cells. Clonal cell lines stably expressing the Kv1.5 channel were established. Expression of protein was analysed by means of immunofluorescence using antibodies directed against the epitope-tag. The functional expression of the ion channels was validated electrophysiologically.
The experiments were performed using CHO cells stably expressing the Kv 1.5 potassium channel.
Cells were grown at 37° C. and 5% CO2 in 25 ml flasks (Greiner Bioone, Cellstar, Cat. No. 690160) in 6 ml MEM ALPHA Medium (Sigma, Taufkirchen, Germany, Cat No M8042) supplemented with 10% (v/v) heat inactivated fetal calf serum (Sigma, Cat. No. F9665), 1% (v/v) P/S/G-solution (Sigma, Cat. No. G6784) and G-418 (750 μg per millilitre medium; Sigma, Germany, Cat. No. A1720; 50 mg/ml in water, Sigma, Germany, Cat. No. W3500).
From a HP of −60 mV cells were hyperpolarised for 100 ms to −70 mV, followed by a 500 ms depolarisation to +50 mV. The current amplitude at the end of the test pulse to +50 mV was used for the analysis. Pulse cycling rate was 10 s (0.1 Hz).
The application protocol of test compounds is depicted in FIG. 4. The first 14 stimuli were required to achieve steady state of the current amplitude. Unspecific current reduction was calculated and served for correcting procedures during data analysis. After the 14th stimulus the test compound application was started (indicated by an arrow) via teflon and silicone tubings and was assumed to reach the cell after 6 additional stimuli. The perfusion is adjusted by using a defined drop rate of 10 drops per 10-12 s. Up to three concentrations were applied successively to one cell followed by a wash period of 5 minutes. Total number of stimuli was 140. Effect of the test compound was analysed between stimulus nos. 21 and 50 (5 min., long dashed line) for the first concentration, between stimulus nos. 51 and 80 (5 min., short dashed line) for an additional 5 minutes. If the cell was still stable, a wash was added afterwards. Start of test compound application at the given concentration is indicated by arrows. Number of stimuli of each single episode are shown in the protocol of FIG. 4.
Vehicle (DMSO) control experiments were performed during study period and under identical conditions to verify the stability of current over time and to value cell condition.
The effects of the test compounds were investigated at one concentration (2 or 1 μM) on the Kv1.5-mediated potassium channel.

[1] = concentration cell empty (text: 2 or 1 μM)

T1 sequence (P22460 whole entry): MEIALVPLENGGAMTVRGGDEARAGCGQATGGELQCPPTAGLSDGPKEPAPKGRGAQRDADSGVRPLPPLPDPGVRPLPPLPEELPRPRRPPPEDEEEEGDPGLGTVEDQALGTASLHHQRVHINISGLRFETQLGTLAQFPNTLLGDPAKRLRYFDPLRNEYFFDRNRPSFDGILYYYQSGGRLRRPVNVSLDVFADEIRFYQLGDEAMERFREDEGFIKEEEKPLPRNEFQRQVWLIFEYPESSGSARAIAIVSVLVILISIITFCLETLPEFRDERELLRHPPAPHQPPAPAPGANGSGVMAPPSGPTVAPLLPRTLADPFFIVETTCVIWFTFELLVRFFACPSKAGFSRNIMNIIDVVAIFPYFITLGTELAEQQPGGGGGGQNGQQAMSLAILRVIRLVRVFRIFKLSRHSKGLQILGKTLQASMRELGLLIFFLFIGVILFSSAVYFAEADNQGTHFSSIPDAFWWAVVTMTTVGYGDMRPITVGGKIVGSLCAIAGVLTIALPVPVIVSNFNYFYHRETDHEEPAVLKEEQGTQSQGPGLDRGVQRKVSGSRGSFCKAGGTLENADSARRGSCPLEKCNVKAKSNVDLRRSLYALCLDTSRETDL

Row | Relative remaining current (mean after 8-10 min) (2 μM, fraction, % in brackets) | Relative remaining current (mean after 5 min) (2 μM, fraction, % in brackets) | Relative remaining current (mean after 8-10 min) [1] | Molecule
1 | 0.66 (66%) | 0.88 (88%) | – | 5-chloro-benzofuran-2- carboxylic acid 2,4- dimethoxy- benzylamide [Compound 2]
2 | – | – | 82% | O=C(NCc1ccc(OC(F)(F)F)cc1)c1cc2cc(Cl)ccc2o1 [Compound 89, 5-chloro-benzofuran-2-carboxylic acid 4-trifluoromethoxy-benzylamide]
3 | – | – | 89% | Cc1c(C(=O)NCc2ccc(F)c(C(F)(F)F)c2)sc2ccc(Cl)cc12 [Compound 107, 5-chloro-3-methyl-benzo[b]thiophene-2-carboxylic acid 4-fluoro-3-trifluoromethyl-benzylamide]
